Reference: the supplement of paper PMC12076712
± gives the standard deviation of the averaged measurements.

How the values were obtained:
Assay in all cases: pIC50, competition of probe 3 labelling in live cells
Details in all cases: cell material: Jurkat cells
[1] = molecular target: CDK2 (UniProt P24941)
[2] = molecular target: UniProt P49840
[3] = molecular target: T1, MAP4K2 (UniProt Q12851)
T1 sequence (whole entry): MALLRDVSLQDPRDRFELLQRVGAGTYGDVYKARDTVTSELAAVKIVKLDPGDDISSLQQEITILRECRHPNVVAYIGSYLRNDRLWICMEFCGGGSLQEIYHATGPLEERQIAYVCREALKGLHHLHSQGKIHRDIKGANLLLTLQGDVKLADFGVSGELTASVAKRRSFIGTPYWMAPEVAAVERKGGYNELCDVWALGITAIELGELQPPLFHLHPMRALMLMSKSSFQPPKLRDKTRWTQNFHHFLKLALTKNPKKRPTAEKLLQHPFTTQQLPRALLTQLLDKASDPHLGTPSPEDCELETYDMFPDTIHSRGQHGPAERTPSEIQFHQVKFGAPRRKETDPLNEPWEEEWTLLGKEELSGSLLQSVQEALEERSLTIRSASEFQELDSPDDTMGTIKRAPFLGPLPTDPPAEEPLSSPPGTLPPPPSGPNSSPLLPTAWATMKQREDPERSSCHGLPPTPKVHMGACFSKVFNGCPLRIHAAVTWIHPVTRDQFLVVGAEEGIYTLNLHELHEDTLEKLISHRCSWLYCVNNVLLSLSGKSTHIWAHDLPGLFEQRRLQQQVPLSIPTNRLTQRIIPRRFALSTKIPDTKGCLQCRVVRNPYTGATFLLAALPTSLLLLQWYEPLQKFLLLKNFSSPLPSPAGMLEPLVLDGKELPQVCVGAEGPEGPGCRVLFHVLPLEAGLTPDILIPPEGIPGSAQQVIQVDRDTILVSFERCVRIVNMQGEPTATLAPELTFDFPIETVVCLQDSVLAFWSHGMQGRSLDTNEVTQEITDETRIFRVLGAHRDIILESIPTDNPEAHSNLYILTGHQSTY

[4] = molecular target: RIPK1 (UniProt Q13546)
Chain of RIPK1 (Q13546 whole entry): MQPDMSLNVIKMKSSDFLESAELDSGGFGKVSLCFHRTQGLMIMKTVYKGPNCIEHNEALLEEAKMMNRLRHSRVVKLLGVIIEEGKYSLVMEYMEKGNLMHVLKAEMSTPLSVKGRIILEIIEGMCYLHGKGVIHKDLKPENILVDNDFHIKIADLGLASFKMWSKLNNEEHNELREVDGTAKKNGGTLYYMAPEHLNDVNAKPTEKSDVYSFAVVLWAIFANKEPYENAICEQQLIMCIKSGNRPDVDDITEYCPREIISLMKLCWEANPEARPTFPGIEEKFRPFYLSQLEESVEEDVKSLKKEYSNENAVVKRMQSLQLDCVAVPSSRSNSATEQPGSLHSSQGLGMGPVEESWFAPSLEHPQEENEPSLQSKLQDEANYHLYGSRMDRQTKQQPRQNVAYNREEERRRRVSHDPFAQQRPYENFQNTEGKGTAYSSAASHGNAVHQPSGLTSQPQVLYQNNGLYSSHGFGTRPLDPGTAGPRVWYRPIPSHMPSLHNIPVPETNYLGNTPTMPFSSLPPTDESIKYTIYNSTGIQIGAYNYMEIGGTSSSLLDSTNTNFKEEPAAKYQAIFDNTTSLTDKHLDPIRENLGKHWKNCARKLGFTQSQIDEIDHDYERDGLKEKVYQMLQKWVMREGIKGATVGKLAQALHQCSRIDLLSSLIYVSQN

[5] = molecular target: T2, MASTL (UniProt Q96GX5)
T2 sequence (whole entry): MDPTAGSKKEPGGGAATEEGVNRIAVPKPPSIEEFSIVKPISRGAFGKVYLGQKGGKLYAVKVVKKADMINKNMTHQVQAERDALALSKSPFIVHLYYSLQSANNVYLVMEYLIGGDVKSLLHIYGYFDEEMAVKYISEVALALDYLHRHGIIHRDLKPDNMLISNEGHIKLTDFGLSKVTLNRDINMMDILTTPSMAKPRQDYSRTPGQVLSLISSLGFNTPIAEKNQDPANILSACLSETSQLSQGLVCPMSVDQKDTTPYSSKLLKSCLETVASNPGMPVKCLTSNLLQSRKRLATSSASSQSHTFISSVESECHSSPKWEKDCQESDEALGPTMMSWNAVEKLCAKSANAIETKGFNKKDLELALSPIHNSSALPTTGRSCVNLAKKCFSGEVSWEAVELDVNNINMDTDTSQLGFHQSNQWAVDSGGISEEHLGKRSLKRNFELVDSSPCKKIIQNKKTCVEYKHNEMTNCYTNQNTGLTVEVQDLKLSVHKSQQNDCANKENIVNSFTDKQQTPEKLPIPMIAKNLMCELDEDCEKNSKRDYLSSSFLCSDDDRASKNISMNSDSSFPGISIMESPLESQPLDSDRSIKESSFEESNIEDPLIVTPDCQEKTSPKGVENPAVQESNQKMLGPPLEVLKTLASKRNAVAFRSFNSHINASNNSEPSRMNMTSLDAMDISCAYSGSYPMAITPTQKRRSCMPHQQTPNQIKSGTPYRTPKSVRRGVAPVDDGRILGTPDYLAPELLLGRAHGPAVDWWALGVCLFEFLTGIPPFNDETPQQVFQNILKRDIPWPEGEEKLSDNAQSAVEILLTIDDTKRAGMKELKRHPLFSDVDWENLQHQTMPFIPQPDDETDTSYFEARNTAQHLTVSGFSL

[6] = molecular target: UniProt P36507
Chain of UniProt P36507 (P36507 whole entry): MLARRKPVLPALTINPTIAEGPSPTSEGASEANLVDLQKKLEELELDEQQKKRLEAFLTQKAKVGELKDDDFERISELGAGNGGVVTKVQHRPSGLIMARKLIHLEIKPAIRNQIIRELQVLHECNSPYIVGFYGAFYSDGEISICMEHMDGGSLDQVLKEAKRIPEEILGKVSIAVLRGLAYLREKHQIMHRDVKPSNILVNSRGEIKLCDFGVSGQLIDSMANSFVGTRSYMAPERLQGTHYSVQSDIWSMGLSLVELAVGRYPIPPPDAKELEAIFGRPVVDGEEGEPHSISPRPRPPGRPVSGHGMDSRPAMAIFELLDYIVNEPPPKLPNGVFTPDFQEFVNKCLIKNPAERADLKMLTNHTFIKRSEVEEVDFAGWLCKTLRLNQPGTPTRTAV

[7] = molecular target: UniProt Q15418
[8] = molecular target: CASP6 (UniProt P55212)
Chain of CASP6 (P55212 whole entry): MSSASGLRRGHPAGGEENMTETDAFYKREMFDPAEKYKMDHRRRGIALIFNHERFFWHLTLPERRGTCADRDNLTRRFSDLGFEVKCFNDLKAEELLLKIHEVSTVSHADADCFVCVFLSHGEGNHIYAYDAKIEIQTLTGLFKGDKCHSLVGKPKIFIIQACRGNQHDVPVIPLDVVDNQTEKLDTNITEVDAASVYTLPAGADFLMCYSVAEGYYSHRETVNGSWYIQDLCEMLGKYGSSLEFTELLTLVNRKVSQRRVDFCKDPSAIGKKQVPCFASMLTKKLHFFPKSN

[9] = molecular target: SRC (UniProt P12931)
Chain of SRC (P12931 whole entry, looked up): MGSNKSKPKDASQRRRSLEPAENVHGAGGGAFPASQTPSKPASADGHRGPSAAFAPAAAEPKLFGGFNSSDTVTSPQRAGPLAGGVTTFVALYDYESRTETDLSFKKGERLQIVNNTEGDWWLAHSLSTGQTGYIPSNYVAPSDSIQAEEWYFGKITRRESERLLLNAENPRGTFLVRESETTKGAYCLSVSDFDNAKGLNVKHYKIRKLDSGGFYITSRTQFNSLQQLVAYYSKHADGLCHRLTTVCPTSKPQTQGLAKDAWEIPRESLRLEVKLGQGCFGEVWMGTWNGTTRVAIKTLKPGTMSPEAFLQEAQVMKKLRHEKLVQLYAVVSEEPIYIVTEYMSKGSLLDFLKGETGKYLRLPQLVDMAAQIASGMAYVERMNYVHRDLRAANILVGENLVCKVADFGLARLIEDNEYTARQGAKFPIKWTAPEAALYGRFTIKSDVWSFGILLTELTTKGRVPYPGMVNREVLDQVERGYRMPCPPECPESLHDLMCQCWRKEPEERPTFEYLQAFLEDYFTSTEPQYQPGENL

[10] = molecular target: MAP4K5 (UniProt Q9Y4K4)
Chain of MAP4K5 (Q9Y4K4 whole entry, looked up): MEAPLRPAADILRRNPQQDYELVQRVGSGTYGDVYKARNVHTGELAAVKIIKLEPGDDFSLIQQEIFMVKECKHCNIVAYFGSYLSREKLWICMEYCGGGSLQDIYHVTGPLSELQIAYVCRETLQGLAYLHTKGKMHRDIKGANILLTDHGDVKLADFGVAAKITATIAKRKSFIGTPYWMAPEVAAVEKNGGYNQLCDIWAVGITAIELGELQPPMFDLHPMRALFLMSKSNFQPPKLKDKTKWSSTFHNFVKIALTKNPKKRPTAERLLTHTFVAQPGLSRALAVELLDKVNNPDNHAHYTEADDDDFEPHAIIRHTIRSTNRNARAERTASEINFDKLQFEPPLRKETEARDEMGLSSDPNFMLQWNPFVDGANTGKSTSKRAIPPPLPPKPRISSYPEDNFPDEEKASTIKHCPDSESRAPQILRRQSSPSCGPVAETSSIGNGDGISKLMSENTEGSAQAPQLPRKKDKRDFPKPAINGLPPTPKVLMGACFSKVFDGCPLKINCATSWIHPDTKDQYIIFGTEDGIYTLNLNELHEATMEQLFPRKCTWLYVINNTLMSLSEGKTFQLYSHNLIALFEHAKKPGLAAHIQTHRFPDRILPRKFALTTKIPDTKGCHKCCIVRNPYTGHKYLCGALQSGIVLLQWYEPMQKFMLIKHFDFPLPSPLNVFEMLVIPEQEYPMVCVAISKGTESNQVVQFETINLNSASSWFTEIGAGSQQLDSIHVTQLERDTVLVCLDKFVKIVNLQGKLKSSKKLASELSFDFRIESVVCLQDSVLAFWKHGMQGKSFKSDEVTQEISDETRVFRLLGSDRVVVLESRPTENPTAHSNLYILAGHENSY

[11] = molecular target: UniProt P49841
[12] = molecular target: PXMP2 (UniProt Q9NR77)
Chain of PXMP2 (Q9NR77 whole entry): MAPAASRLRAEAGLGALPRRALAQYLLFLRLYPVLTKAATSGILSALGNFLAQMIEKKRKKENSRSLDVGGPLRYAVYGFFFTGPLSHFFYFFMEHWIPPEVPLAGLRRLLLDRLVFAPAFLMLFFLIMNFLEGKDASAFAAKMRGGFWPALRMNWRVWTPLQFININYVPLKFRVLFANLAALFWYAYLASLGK

[13] = molecular target: UniProt P28482
Chain of UniProt P28482 (P28482 whole entry): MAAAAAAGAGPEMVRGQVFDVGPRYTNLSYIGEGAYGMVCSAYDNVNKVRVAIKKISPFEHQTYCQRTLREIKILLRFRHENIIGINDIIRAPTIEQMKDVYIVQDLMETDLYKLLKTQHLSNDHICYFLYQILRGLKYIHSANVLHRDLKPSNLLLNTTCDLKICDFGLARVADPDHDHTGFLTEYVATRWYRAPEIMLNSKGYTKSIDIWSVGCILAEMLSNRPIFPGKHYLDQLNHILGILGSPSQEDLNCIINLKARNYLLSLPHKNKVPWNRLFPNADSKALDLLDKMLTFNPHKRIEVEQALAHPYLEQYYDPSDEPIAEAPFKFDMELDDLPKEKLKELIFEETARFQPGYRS

[14] = molecular target: FER (UniProt P16591)
[15] = molecular target: T3, UniProt Q13043
T3 sequence (whole entry): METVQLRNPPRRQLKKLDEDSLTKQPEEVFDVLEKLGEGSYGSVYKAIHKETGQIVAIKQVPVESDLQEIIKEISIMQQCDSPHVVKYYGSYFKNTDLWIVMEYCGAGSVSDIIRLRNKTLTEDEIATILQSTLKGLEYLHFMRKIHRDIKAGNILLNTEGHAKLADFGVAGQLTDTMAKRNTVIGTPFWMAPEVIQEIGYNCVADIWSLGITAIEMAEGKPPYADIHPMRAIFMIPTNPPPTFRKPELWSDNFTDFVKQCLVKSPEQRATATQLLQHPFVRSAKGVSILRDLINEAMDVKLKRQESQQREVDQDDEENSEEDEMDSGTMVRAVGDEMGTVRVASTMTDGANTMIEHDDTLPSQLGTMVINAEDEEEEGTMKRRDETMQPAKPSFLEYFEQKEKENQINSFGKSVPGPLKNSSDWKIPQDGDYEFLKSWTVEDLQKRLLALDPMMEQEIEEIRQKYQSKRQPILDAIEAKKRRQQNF

[16] = molecular target: SLK (UniProt Q9H2G2)
Chain of SLK (Q9H2G2 whole entry, looked up): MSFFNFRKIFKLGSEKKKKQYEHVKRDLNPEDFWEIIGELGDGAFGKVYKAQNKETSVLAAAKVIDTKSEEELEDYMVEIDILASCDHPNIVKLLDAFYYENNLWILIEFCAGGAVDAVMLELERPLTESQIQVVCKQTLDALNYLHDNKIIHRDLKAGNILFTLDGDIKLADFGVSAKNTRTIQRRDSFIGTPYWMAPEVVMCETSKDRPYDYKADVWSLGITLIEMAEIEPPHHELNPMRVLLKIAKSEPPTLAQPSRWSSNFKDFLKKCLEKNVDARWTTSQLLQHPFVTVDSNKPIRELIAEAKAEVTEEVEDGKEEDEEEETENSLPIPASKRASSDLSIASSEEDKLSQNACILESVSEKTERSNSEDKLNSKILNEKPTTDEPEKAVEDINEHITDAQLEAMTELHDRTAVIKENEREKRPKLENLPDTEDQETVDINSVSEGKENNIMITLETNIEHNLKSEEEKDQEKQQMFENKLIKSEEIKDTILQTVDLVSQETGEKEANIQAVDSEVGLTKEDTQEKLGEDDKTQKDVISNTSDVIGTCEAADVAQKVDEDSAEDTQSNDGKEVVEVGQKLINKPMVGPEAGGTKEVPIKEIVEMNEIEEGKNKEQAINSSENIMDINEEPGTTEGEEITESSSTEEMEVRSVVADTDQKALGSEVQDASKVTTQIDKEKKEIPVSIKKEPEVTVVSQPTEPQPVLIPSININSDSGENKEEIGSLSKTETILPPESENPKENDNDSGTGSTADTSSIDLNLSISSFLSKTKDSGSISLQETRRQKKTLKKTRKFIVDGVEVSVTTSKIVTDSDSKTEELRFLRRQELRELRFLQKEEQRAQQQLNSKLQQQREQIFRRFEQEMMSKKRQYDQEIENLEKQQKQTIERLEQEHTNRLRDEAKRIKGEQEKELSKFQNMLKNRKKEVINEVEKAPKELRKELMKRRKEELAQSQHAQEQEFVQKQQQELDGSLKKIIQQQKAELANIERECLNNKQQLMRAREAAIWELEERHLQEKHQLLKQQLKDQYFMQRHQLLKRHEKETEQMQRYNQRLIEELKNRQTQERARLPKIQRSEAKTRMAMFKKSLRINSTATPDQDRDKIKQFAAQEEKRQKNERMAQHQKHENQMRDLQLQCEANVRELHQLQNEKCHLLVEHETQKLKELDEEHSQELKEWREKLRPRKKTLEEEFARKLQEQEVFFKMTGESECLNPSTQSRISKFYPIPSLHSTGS

Chain of UniProt P49840 (P49840 whole entry, looked up): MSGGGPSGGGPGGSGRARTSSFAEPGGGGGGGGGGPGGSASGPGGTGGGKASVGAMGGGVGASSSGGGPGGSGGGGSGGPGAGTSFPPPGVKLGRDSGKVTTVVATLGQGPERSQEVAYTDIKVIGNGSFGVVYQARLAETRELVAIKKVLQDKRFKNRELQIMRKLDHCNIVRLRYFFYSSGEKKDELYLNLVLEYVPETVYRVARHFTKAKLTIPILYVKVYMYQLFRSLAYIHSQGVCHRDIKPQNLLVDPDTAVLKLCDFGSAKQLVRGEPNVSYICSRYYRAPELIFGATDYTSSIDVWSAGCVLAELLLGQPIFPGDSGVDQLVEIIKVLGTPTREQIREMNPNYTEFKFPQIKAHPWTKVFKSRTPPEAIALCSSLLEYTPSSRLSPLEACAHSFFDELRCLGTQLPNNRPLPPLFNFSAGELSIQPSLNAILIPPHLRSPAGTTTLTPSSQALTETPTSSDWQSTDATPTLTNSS

pIC50 [1]	pIC50 [2]	pIC50 [3]	pIC50 [4]	pIC50 [5]	pIC50 [6]	pIC50 [7]	pIC50 [8]	pIC50 [9]	pIC50 [10]	pIC50 [11]	pIC50 [12]	pIC50 [13]	pIC50 [14]	pIC50 [15]	pIC50 [16]	Structure (SMILES)
< 4.52	< 4.52	< 4.52	< 4.52	< 4.52	< 4.52											CC#CC(=O)Nc1ccc2ncnc(Nc3cccc(Br)c3)c2c1 [EKI-785]
						< 4.52	< 4.52	< 4.52	< 4.52	4.85 ± 0.27	< 4.52	< 4.52	< 4.52	< 4.52	< 4.52	CCc1cnn2c(NCc3ccc[n+]([O-])c3)cc(N3CCCC[C@H]3CCO)nc12 [dinaciclib]
